From PMC11242993, “Evaluation of the Therapeutic Potential of Sulfonyl Urea Derivatives as Soluble Epoxide Hydrolase (sEH) Inhibitors” (Molecules, 2024)
Converted amounts (≈) assume the structure as drawn.

Columns and labels:
[1] = Aqueous (kinetic, nephelometric) solubility in PBS; type: physicochemical
Protocol: Aliquots of 5 µL of 20.00 mM, 10.00 mM, 5.00 mM, 2.50 mM, 1.25 mM, 0.63 mM, 0.31 mM, 0.16 mM DMSO stock solutions of the control (highly soluble 2′-deoxy-5-fluorouridine and insoluble raloxifen hydrochloride) and the test compounds were loaded in 96-well microplates with clear flat bottoms in duplicates. Then, 250 µL of PBS was dispensed into each well using a Multidrop Combi dispenser to reach the concentrations of 400.0 µM, 200.0 µM, 100.0 µM, 50.0 µM, 25.0 µM, 12.5 µM, 6.25 µM, 3.125 µM for each compound with 2% final DMSO. Then, the resulting solutions were incubated for 15 min at room temperature. The effective range of this assay is approximately 5–200 µM. The solubility of each compound was calculated using the dedicated fitting algorithm. The physical base of nephelometric titration fitting is based on the quick increase in turbidity when a concentration of the tested compound reaches its solubility level. An intersection of the regression line of the high-level turbidity points with the calculated baseline was plotted for each compound. The baseline is a linear regression line plotted for fully soluble control compound DOFU. Each concentration point signal of the test article was compared with the corresponding signal of DOFU. […]

Caco-2 permeability = type: in vitro ADME; conditions: human, Caco-2, pH 7.4
Protocol: Caco-2 cells were cultured in 75 cm^2 flasks to 80–90% confluence according to the ATCC and Millipore recommendations in a humidified atmosphere at 37 °C and 5% CO2. Cells were detached with a trypsin/EDTA solution, resuspended in the complete medium containing DMEM high glucose ([…]) with L-glutamine (4 mM) supplemented with 10% heat-inactivated Fetal Bovine Serum, 1% non-essential amino acids, and 730 nM puromycin, and seeded at a density of 5 × 10^5 cells in a 75 cm^2 flask. After 5 days, cells were trypsinized and resuspended in the complete medium to a final concentration of 600 × 10^3 cells/mL. Of the cell suspension, 400 µL was added to each well of an HTS 24-Multiwell Insert System and 25 mL of prewarmed complete medium was added to the feeder tray. Caco-2 cells were incubated in the Multiwell Insert System for 6–10 days before the transport experiments. The medium in the filter plate and feeder tray was refreshed every other day. Prior to the transport experiment, the integrity of the monolayer was verified by measuring the transepithelial electrical resistance (TEER) for every well using a Millicell-ERS system ohm meter. The final TEER values were within the range of 150–600 Ω × cm^2, as required for the assay conditions. The 24-well insert plate was removed from its feeder plate and placed in a new sterile 24-well transport analysis plate. The inserts were washed with PBS after medium aspiration. Ketoprofen, atenolol, digoxin, and quinidine were used as reference compounds.
To determine transport rates in the basolateral (B)-to-apical (A) direction, 1000 μL of the test compound solutions was added into the wells of the transport analysis plate, and the wells in the filter plate were filled with 300 μL of buffer (apical compartment).
The effect of the inhibitor on the Pgp-mediated transport of the tested compounds was assessed by determining the bidirectional transport in the presence or absence of verapamil. The Caco-2 cells were preincubated for 30 min at 37 °C with 100 μM of verapamil in both apical and basolateral compartments. After removal of the preincubation medium, the test compounds with verapamil (100 μM) in transport buffer were added in donor wells, while the receiver wells were filled with the appropriate volume of transport buffer with 100 μM of verapamil. The final amounts of test and reference compounds were 10 μM each. The plates were incubated for 90 min at 37 °C under continuous shaking at 100 rpm. Aliquots of 75 μL were taken from the donor and receiver compartments for LC–MS/MS analysis. All samples were mixed with 2 volumes of acetonitrile followed by protein sedimentation by centrifuging at 10,000 rpm for 10 min. Supernatants were analyzed using the HPLC system coupled with a tandem mass spectrometer.

C57BL/6J male mice = assay: Tail-flick reflex model; type: in vivo; conditions: single intraperitoneal injection at 10 mg/kg
Protocol: A tail-flick reflex test was performed as previously described. The parameters of the tail-flick instrument (7360, Ugo Basile Instruments, Varese, Italy) were set up to keep the baseline at 2.5–4.0 s. Mice were fixed and the part about 1.5–2 cm away from the tail of the mouse was aligned with the infrared emission hole of the instrument. […] Latencies of mice of less than 2 s or more than 5 s were excluded. […] The cut-off time in the tail-flick reflex test was set at 8 s to avoid sensitization and damage to the skin and to achieve the maximum possible effect (MPE%) = (measured value − basic value) × 100/(cut-off − basic value). C57BL/6J male mice obtained from The Jackson Laboratory (Bar Harbor, ME, USA) weighing 28 g were used for the tail-flick test. Animal procedures were conducted following the rules and regulations of the Institutional Animal Care and Use Committee of the National Institute on Alcohol Abuse and Alcoholism (NIAAA) under the protocols of LPS-GK1.

## O=C(NC12CC3CC(CC(C3)C1)C2)NS(=O)(=O)c1ccc(OC(F)(F)F)cc1 [Compound 4f]
[1]; PBS, pH 7.4, aqueous buffer, kinetic from dmso stock, read-out: Aq. Solubility pH = 7.4
  solubility at 15 min: 53 µg/mL (≈ 127 µM)
[1]; pH 7.4
  aqueous solubility (in words): moderate aqueous solubility
Caco-2 permeability; A to B, read-out: Caco-2 Permeability Apical to Basal (Papp)
  Papp A→B at 90 min, 10 µM: 14.9 ×10⁻⁶ cm/s
Caco-2 permeability; B to A, read-out: Caco-2 Permeability Basal to Apical (Papp)
  Papp B→A at 90 min, 10 µM: 12.6 ×10⁻⁶ cm/s
C57BL/6J male mice
  analgesic activity in tail-flick model: significant efficacy
